The source of these data is ChEMBL document CHEMBL5260799, “Pterocarpan scaffold: A natural lead molecule with diverse pharmacological properties” (Eur J Med Chem, 2017).

≈ marks a conversion by molar mass, not a printed value. A value given as a limit tells only on which side of the number the result lay.

As a reminder, the IC50 is the concentration that gives 50% inhibition. By EC50 is commonly meant the midpoint of the concentration-response curve. The MIC is the lowest concentration that inhibits growth of the organism.

In data set [1] the test system is Staphylococcus aureus. The data set can be described thus: Antibacterial activity against methicillin-resistant Staphylococcus aureus ATCC 25923 assessed as bacterial growth inhibition by broth dilution method. The data set is classed as functional, organism-based. For orientation: Broth dilution looks for growth in wells or tubes with falling amounts of substance.

For data set [2], the system named is Staphylococcus aureus. Nature of the data set: Antibacterial activity against Staphylococcus aureus ATCC 25923 assessed as bacterial growth inhibition by broth dilution method. The data set is classed as functional, organism-based.
For another data set, the system named is MCF7. The data set can be described thus: Antiproliferative activity against human MCF7 cells assessed as inhibition of cell proliferation incubated for 72 hrs by MTT assay. In kind it is functional, cell-based. Conditions: MCF7, 72 h. A general note: Tetrazolium dyes change colour on reduction, which living cells bring about.
Another data set relates to HL-60. The data set can be described thus: Antiproliferative activity against human HL-60 cells assessed as reduction in cell viability at 12.5 ug/ml by tryphan blue staining assay. The data set is classed as functional. As to conditions: dose 12.5 µg/ml.
Data set [3] can be described thus: Cytotoxicity against mouse RAW264.7 cells assessed as increase in NO production measured after 48 hrs by MTT assay. The data set is classed as toxicity, cell-based.
Another data set deals with A2780. The data set can be described thus: Antiproliferative activity against human A2780 cells assessed as reduction in cell viability incubated for 96 hrs by MTT assay. In kind it is functional, cell-based. Conditions: A2780, 96 h.
Another data set deals with RAW264.7. Nature of the data set: Antiinflammatory activity in mouse RAW264.7 cells assessed as inhibition of LPS-induced NO production at 50 uM measured after 24 hrs by Griess method. In kind it is functional, cell-based. Conditions: RAW264.7, 24 h. On the technique in general: Nitrite, measured by Griess reagent, commonly stands in for NO production.
The test system of data set [4] is Mycobacterium tuberculosis. Nature of the data set: Antimycobacterial activity against Mycobacterium tuberculosis H37Rv assessed as inhibition of bacterial growth by Microplate alamar blue assay. In kind it is functional, organism-based.
The subject of another data set is Plasmodium falciparum. The data set can be described thus: Antiplasmodial activity against Plasmodium falciparum K1 assessed as reduction in parasite growth by fluorescence based assay. In kind it is functional, organism-based.
The subject of a further data set is Breast carcinoma cell. The data set can be described thus: Cytotoxicity against human Breast carcinoma cell assessed as reduction in cell viability by colorimetric assay. The data set is classed as functional, cell-based.
A further data set deals with Streptococcus agalactiae. Nature of the data set: Antibacterial activity against Streptococcus agalactiae ATCC 12386 assessed as reduction in bacterial growth by microbroth dilution method. The data set is classed as functional.
The subject of data set [5] is KB. The data set can be described thus: Cytotoxicity against human KB cells assessed as reduction in cell viability by colorimetric assay. In kind it is functional, cell-based.
In another data set the test system is K562. Nature of the data set: Cytotoxicity activity against human K562 cells assessed as reduction in cell viability […] measured after 72 hrs by MTT assay. In kind it is functional, cell-based. Conditions: K562, 72 h.
The nature of data set [6]: Cytotoxicity activity against human Lucena 1 cells assessed as reduction in cell viability […] measured after 72 hrs by MTT assay. Conditions: Lucena 1, 72 h. In kind it is functional, cell-based.
A short description of data set [7]: Inhibition of melanin in human melanocyte. In kind it is functional, cell-based.
In another data set the test system is DLD-1. The data set can be described thus: Cytotoxicity against human DLD-1 cells assessed as reduction in cell proliferation incubated for 24 hrs by MTT assay. The data set is classed as functional, cell-based. As to conditions: DLD-1, 24 h.
Another data set has as its system HeLa. Nature of the data set: Cytotoxicity against human HeLa cells assessed as reduction in cell proliferation incubated for 24 hrs by MTT assay. In kind it is functional, cell-based.
Data set [8] deals with Staphylococcus aureus. Nature of the data set: Antibacterial activity against methicillin-resistant Staphylococcus aureus assessed as bacterial growth inhibition. In kind it is functional, organism-based.
Data set [9] concerns KB. Nature of the data set: Antiproliferative activity against human KB cells assessed as reduction in cell viability after 72 hrs by SRB assay. The data set is classed as functional.
In a further data set the test system is A549. Nature of the data set: Cytotoxicity against human A549 cells assessed as reduction in cell viability by SRB assay. The data set is classed as functional, cell-based.
The test system of a further data set is BMDC. Nature of the data set: Anti-inflammatory activity against LPS-induced C57BL/6 mouse BMDC cells assessed as inhibition of IL-12 production at 25 uM by ELISA method. In kind it is functional. Further details: scale not given: the % may be the effect or the level left.

`COc1ccc2c(c1CC=C(C)C)O[C@H]1c3ccc(C)cc3OC[C@@]21O`: the IC50 in the data set with Staphylococcus aureus [1] and in the data set on Staphylococcus aureus [2] was 64 µg/mL (≈ 182 µM) in each case.

On to `COc1cc2c(cc1OCc1ccccc1)C1COC3C(=O)c4ccccc4C(=O)C3C1O2` (stereo unspecified), for which the IC50 in the data set with MCF7 was greater than 100 µM.

For `COc1ccc2c(c1CC=C(C)C)O[C@H]1c3ccc(O)cc3OC[C@@]21OC` [ERYTHRIBYSSIN A], the IC50 in the data set on Staphylococcus aureus [1] came out at 32 µg/mL (≈ 86.9 µM); with Staphylococcus aureus [2], 64 µg/mL (≈ 174 µM).

For the molecule `O=C1c2ccccc2C(=O)C2C1OCC1c3cc(OCc4ccccc4)c(OCc4ccccc4)cc3OC12` (stereo unspecified), the IC50 in the data set with MCF7 is greater than 100 µM.

With `COc1ccc2c(c1)O[C@@H]1c3ccc(OC)cc3OC[C@H]21`, the Activity in the data set with HL-60 came out at 52.5%.

`CC(=O)/C(C)=C/c1c(O)ccc2c1O[C@H]1c3ccc(O)cc3OC[C@@H]21`: in data set [3], the IC50 at 48 h came out at 19 µM.

With `C=C(CO)[C@H]1Cc2cc3c(cc2O1)OC[C@H]1c2cc4c(cc2O[C@@H]31)OCO4`, the IC50 in the data set with A2780 is greater than 54.4 µM.

Turning to `COc1ccc2c(c1OC)O[C@H]1c3ccc(O[C@H]4O[C@H](COC(C)=O)[C@@H](O)[C@H](O)[C@H]4O)cc3OC[C@@H]21`, in the data set with RAW264.7, the EC50 is 28.7 µM.

Turning to `COc1cc2c(cc1OCc1ccccc1)OC1C2COC2C(=O)c3ccccc3C(=O)C21` (stereo unspecified), in the data set with MCF7, the IC50 amounted to 27.7 µM.

`CC(C)=CCc1cc2c(cc1O)OC[C@H]1c3ccc(O)c(CC=C(C)C)c3O[C@@H]21` [ERYBRAEDIN C]: the IC50 amounted to 50 µg/mL (≈ 127 µM) in data set [4], 5.5 µg/mL (≈ 14 µM) with Plasmodium falciparum, 2.9 µg/mL (≈ 7.39 µM) in the data set with Breast carcinoma cell and 5.1 µg/mL (≈ 13 µM) in the data set with KB [5]. Moreover, in the data set with Streptococcus agalactiae, the MIC turned out to be 0.78 µg/mL (≈ 1.99 µM).

Turning to `COc1cc2c(cc1O)O[C@@H]1C3=C(OC[C@H]21)C(=O)c1ccccc1C3=O`, the results for the IC50 (with K562; in [6]) were 4.5 µM and 4.49 µM, respectively.

For the molecule `COc1cc2c(cc1O)C1COC3C(=O)c4ccccc4C(=O)C3C1O2` (stereo unspecified), the IC50 with MCF7 turned out to be 7.8 µM.

In turn, `COc1ccc2c(c1)OCc1c-2oc2c3c(c(O)cc12)OC(C)(C)C=C3` [LESPEFLORIN H2] showed an IC50 in data set [7] of 1.48 µM.

For the molecule `COc1cc2c(cc1O)[C@@H]1Oc3c(cc(OC)c(OC)c3O)[C@@H]1CO2` [BRANDISIANIN F], the IC50 in the data set on DLD-1 and in the data set with HeLa was greater than 25 µM in each case.

Turning to `CC(C)=CCc1c(O)c(C)cc2c1O[C@H]1c3cc4c(cc3OC[C@@H]21)OC(C)(C)C=C4` [LESPECYRTIN E5], in data set [7], the IC50 came to 1.5 µM.

For the molecule `COc1ccc2c(c1)O[C@@H]1c3ccc(O)cc3OC[C@H]21`, the Activity in the data set with HL-60 is 57.4%.

Regarding `COc1cc2c(cc1O)[C@H]1COC3=C(C(=O)c4ccccc4C3=O)[C@H]1O2`, in data set [6], the IC50 was found to be 2.57 µM.

As to `COc1cc2c(cc1CC=C(C)C)[C@@H]1Oc3cc(O)ccc3[C@@H]1CO2`, the IC50 in the data set on Staphylococcus aureus [8] is 6.25 µg/mL (≈ 18.5 µM).

Consider `CC(C)=CC[C@]12COc3c(cc(O)c4c3C=CC(C)(C)O4)[C@H]1Oc1cc3c(cc12)OCO3`, for which the Activity with KB [9] is 56%.

As for `CC1(C)Oc2cc3c(cc2CC1O)[C@@H]1Oc2cc(O)ccc2[C@@H]1CO3` (stereo partly specified) [RAUTANDIOL A], the IC50 in the data set on A549 was greater than 5 µg/mL.

In turn, `COc1ccc2c(c1)OC[C@H]1c3cc(O)c(OC)c(CC=C(C)C)c3O[C@@H]21` [LESPEFLORIN G8] had an IC50 in data set [7] of 1.63 µM.

`COc1ccc2c(c1OC)OC1c3ccc(O[C@H]4O[C@H](CO)[C@@H](O)[C@H](O)[C@H]4O)cc3OCC21` (stereo partly specified): the Activity in the data set on BMDC came to 10%.

As for `O=C1c2ccccc2C(=O)C2C1OCC1c3cc(O)c(O)cc3OC12` (stereo unspecified), in the data set with MCF7, the IC50 is 115 µM.
